The values that follow come from patent US5556777A, “Immunosuppressive pharmaceutical compositions new biological activity from a marine agrobacterium sp” (PharmaMar, s.a., priority 1993, dated 1996).

In data set [1] the test system is Graft-v-Host Reaction. In words: In vivo Graft-v-Host reaction (GVHR), spleen index. On the set-up: species or system mouse. As to the method: Any sample that prevents splenomegaly (<graft index) is considered as an immunosuppressive active.
A standard of cyclophosphamide (200 mg/kg) is used. Experimental animals are sacrificed on D8 and spleens removed. […] Moribund animals are sacrificed immediately.

Data set [2] can be described thus: Lymphocyte viability / cytotoxicity assay (LcV), MTT. In kind it is cell-based, murine. Conditions: mouse, lymphocytes; LcV; read-out: cytotoxicity IC50. The procedure: (§1) The LCV is a in vitro cytotoxicity assay for murine lymphocytes designed by the investigator. The LCV is similar to the MLR with the exception that only one cell population (Balb/c) is incubated with the test compound to assess cytotoxicity as distinct from the antiproliferative effects of a test compound. That is, unlike the unambiguous determination of immunostimulation from MLR data, a judgement of immunosuppression can not be immediately interpreted. Cytotoxicity (e.g., due to direct cell lysis) from a compound can occur which would alter viability determinations inherent in the generation of MLR data. […] The percent viable cells is determined by the MTT-thiazolyl blue method after a similar incubation to the MLR of lymphocytes with the test sample. MTT is a substrate converted by mitochondrial enzymes in living cells to a purple, water-insoluble, formazan crystal. If there is no significant reduction in cell viability, as determined by this detection method, then damaged cells are probably not present for low data values generated in the MLR. Colorimetric data from the LCV is calculated as a percentage of viability, relative to control, using the following formula: [formula]
(§2) A 50% viability, or 50% cytotoxicity, (IC50) value was interpolated for sesbanimide containing fractions tested.
(§3) Lymphocytes are prepared as described above for the MLR with the exception that cells from only one murine strain are prepared (BLAB/c). Reconstituted extract (10 μl) is added in two sets of duplicates into wells of a 96-well microtiter plate and evaporated to dryness at room temperature. Lymphocytes (2.5×10^6 cells/ml) are added to one set of duplicates and to wells containing no sample. Media containing no cells are added to the other set of duplicates to provide background color control data. Plated are incubated in a 5% CO2 incubator for 4 hours and pulsed with MTT-thiazolyl blue for 6-8 hours.

Data set [3] has as its system murine lymphocytes (Balb/c). Described as above. In kind it is cell-based. As to conditions: murine lymphocytes, MTT viability (50% cytotoxicity). The procedure: as §1, §2, §3
A short description of data set [4]: Toxicology (MTD, LD50) in CD-1 or CB6F1 mice. The class given is in vivo, mouse. As to conditions: mouse, in vivo, CD-1 or CB6F1 mice. The procedure: (§4) The MTD establishes the parameters to establish in vivo dosages initiated for studying the Graft-v-Host reaction and skin grafting. The Swiss conventional mouse (Charles River CD-1) is used in a weight range from 18-30 g.
(§5) Animals are injected with a single dose at four dose levels: e.g., 400 mg/kg, 100 mg/kg, 40 mg/kg, and 10 mg/kg in 0.5 ml of sterile vehicle (2 animals per dose, MTD). A saline solution containing 5% non-denatured EtOH and a drop of Tween-80 detergent is used a vehicle for dilution. Stirring and sonication are utilized to effect solution or suspension of the composition. The composition is injected within one hour of preparation. Animals are observed for five days (MTD) after injection for toxic symptoms and/or death. Group weights are taken D0 and D5. Surviving animals are sacrificed on D5 (MTD). A `Daily Logsheet` used in the toxicity studies is appended.

Data set [5] has as its system CD-1 or CB6F1 mice. Kind of data set: Toxicology (MTD, LD50) in CD-1 or CB6F1 mice. In kind it is in vivo, mouse. As to the method:
as §4, §5

The test system of data set [6] is murine lymphocytes (Balb/c and C57BI/6, cocultured). In words: In vitro murine mixed lymphocyte reaction (MLR). In kind it is cell-based. As to conditions: for MLR IC50: murine MLR, 96 h incubation, 15 h 3H-Thy pulse; for Index Cytotox./Activity: ratio LcV IC50 / MLR IC50. The procedure:
The MLR is an in vitro test of cellular immunity in which murine lymphocytes from genetically dissimilar animals are cocultured to mutually induce cell proliferation (i.e., two-way MLR method). Mixed cell suspensions, together with the test compound, are incubated for 96 hours and subsequently pulsed for 15 hours with tritiated-thymidine (3H-Thy), a radioisotopically labelled nucleic acid. Tritiated-thymidine is incorporated into the DNA of proliferating cells. Data from the MLR is generated as dpm of radioactivity which is then expressed as a percentage of cellular activity, relative to control, using the following reduced formula: [formula]
A 50% inhibitory concentration (IC50) value was interpolated for sesbanimide containing fractions tested. A ratio between cytotoxicity, as determined from the LcV described below, and activity in the MLR is also presented. A high ratio distinguishes noncytotoxic immunosuppression from general cytotoxicity.
Reconstituted extract (10 μl) is added in two sets of duplicates into wells of a 96-well microtiter plate and evaporated to dryness at room temperature. […] To the other set of sample duplicates is added complete media without cells so as to provide for background color control data. All plated are incubated in a 5% CO2 incubator for 96 hours and pulsed for 15 hours with 100 μl containing 1 μCi/well tritiated-thymidine (^3 H-Thy). The plates are harvested onto glass fiber filter discs using an INOTECH harvester. The filter discs are counted directly using an INOTECH dry scintillation counter. The activity of the discs are calculated as a relative proliferative percent of a mean control value as described above.

Data set [7] relates to leukemia. As to conditions: isolated from Sesbania drummondi; cited from earlier work.
The test system of data set [8] is primary mixed lymphocyte cultures (MLRs) and alloreactive T cells. As to conditions: compared with cyclosporin A; cited from earlier work.
In data set [9] the test system is Agrobacterium sp. strain PH-103. Kind of data set: Antibiotic sensitivity of strain PH-103 (sensitivity discs). The class given is cell-based. Conditions: 27° C. As to the method: 18. Antibiotic sensitivity--ATCC number 231 basal medium. Difco sensitivity discs
The culture was incubated at 27° C. and records of the results were made after suitable incubation times. All media were prepared with 2.7% Instant Ocean Salts and pH was approximately neutral (7-7.4). The description of the culture and test results are as follows: […]

≈ marks a conversion by molar mass, not a printed value. Bounds are passed on as bounds.

On to `C=C1COC(O)(C2OCOC(C3CC(=O)NC(=O)C3)C2O)C1C` (single isomer, unassigned) [Sesbanimide], for which the “immunosuppressive activity in GVHR (in words)” value in data set [1] (Table 6 data) was “potent immunosuppressive activity”. In data set [1] (optimal dose 0.2 mg/kg, i.p. per diem 7 days), the “Alive Day 8” value amounted to 40%. Also, the “GVHR Index” value in data set [1] (optimal dose 0.2 mg/kg, i.p. per diem 7 days, positive 1.34) came to 0.92. Besides, the CC50 at 4 h in data set [2] is 0.417 to 3.6 mg/L (≈ 1.27 to 11 µM). Moreover, the “LcV IC50” value was 13.100 mg/L in [3] (listed as ET 103/64-6:8) and 0.417 mg/L in [3] (listed as ET 103/89-4). In addition, the survival at 120 h in data set [4] (at maximum tolerated dose, read-out: Alive Day 5) is 100%. Moreover, in data set [4] (read-out: Maximum Tolerated), the MTD at 120 h was 0.56 mg/kg. Besides, the LD50 (usually the dose at which mortality reaches 50%) in [5] (CD-1 or CB6F1 mice) is recorded as 0.805 mg/kg. In addition, in [5] (pure compound, in vivo, 56, 10.5 and 5.6 mg/kg), the “toxicity at 56, 10.5 and 5.6 mg/kg” value is on record as “toxic”. In addition, the “toxicity at total doses equal to or lower than 0.56 mg/kg” value in [5] (pure compound, in vivo, total dose ≤0.56 mg/kg) is “no toxicity”. In addition, the “immunosuppressive activity (in words)” value in data set [6] (Table 4 data: trace amounts of an extract, major constituent, or pure compound) was “potent immunosuppressive activity”. Also, the “MLR IC50” value in data set [6] (listed as ET 103/64-6:8) is less than 0.0075 mg/L; in data set [6] (listed as ET 103/89-4), 0.00015 mg/L. The “Index Cytotox./Activity” value in data set [6] (listed as ET 103/64-6:8) is recorded as > 1,746; in data set [6] (listed as ET 103/89-4) it was 2,777. Further, the “antineoplastic activity (in words)” value in [7] is listed as “antineoplastic activity, particularly against leukemia”.

Take `O=P1(N(CCCl)CCCl)NCCCO1` (stereo not shown) [Cyclophosphamide, cyclophosphamide]: the “Alive Day 8” value in data set [1] (200.0 mg/kg, test 124-93) is listed as 100%; in data set [1] (200.0 mg/kg, test 811-93) it was 60%. Moreover, the “GVHR Index” value in data set [1] (200.0 mg/kg, test 124-93, positive 1.32) came out at 0.23; in [1] (200.0 mg/kg, test 811-93, positive 1.34), 0.28.

For `C=CC[C@@H]1/C=C(\C)C[C@H](C)C[C@H](OC)[C@H]2O[C@@](O)(C(=O)C(=O)N3CCCC[C@H]3C(=O)O[C@H](/C(C)=C/[C@@H]3CC[C@@H](O)[C@H](OC)C3)[C@H](C)[C@@H](O)CC1=O)[C@H](C)C[C@@H]2OC` [FK 506], the “potency relative to cyclosporin A (in words)” value in [8] is on record as “more potent than cyclosporin A”.

In the case of `CCn1cc(C(=O)O)c(=O)c2ccc(C)nc21` [nalidixic acid], in data set [9], the “Antibiotic sensitivity of strain PH-103” value is “Sensitive”.

As to `CN[C@H](CC(C)C)C(=O)N[C@H]1C(=O)N[C@@H](CC(N)=O)C(=O)N[C@H]2C(=O)N[C@H]3C(=O)N[C@H](C(=O)N[C@H](C(=O)O)c4cc(O)cc(O)c4-c4cc3ccc4O)[C@H](O)c3ccc(c(Cl)c3)Oc3cc2cc(c3O[C@@H]2O[C@H](CO)[C@@H](O)[C@H](O)[C@H]2O[C@H]2C[C@](C)(N)[C@H](O)[C@H](C)O2)Oc2ccc(cc2Cl)[C@H]1O` [vancomycin], the “Antibiotic sensitivity of strain PH-103” value in data set [9] is “resistant”.

Turning to polymyxin, in data set [9], the “Antibiotic sensitivity of strain PH-103” value was “resistant”.
